Experiment: Stability test of crystal forms (40±2° C., RH 75±5%, 3 months)
Format: physicochemical
Conditions: for Crystal appearance / Melting point / Purity / Specific optical rotation: stability test
Experimental: The crystal forms obtained in Examples 2 to 4 were placed under an environment having a temperature of 40±2° C. and a humidity of RH 75±5% for 3 months. The melting point, specific optical rotation, purity and crystal appearance were measured on 0 day, 1-month, 2-month and 3-month, respectively.

[1] = 3 months, conclusion from Table 2

CCC(=O)O[C@H]1CC[C@@]2(C)C(=CC[C@@H]3[C@@H]2CC[C@]2(C)C(c4cccnc4)=CC[C@@H]32)C1 [Example 2, (3β)-17-(3-pyridyl)-androstane-5,16-dien-3-ol propionate]
Crystal appearance (0 month): No change | Melting point (0 month): 109.5~110.4 °C | Purity (0 month): 99.88 | Specific optical rotation (0 month): −44.32° | Crystal appearance (1 month): No change | Melting point (1 month): 109.4~110.3 °C | Purity (1 month): 99.86 | Specific optical rotation (1 month): −44.06° | Crystal appearance (2 months): No change | Melting point (2 months): 109.4~110.5 °C | Purity (2 months): 99.82 | Specific optical rotation (2 months): −43.67° | Crystal appearance (3 months): No change | Melting point (3 months): 109.8~110.5 °C | Purity (3 months): 99.81 | Specific optical rotation (3 months): −44.23°

CCC(=O)O[C@H]1CC[C@@]2(C)C(=CC[C@@H]3[C@@H]2CC[C@]2(C)C(c4cccnc4)=CC[C@@H]32)C1 [Example 3, (3β)-17-(3-pyridyl)-androstane-5,16-dien-3-ol propionate]
Crystal appearance (0 month): No change | Melting point (0 month): 109.7~110.6 °C | Purity (0 month): 99.89 | Specific optical rotation (0 month): −44.34° | Crystal appearance (1 month): No change | Melting point (1 month): 109.4~110.4 °C | Purity (1 month): 99.87 | Specific optical rotation (1 month): −44.21° | Crystal appearance (2 months): No change | Melting point (2 months): 109.5~110.0 °C | Purity (2 months): 99.84 | Specific optical rotation (2 months): −44.05° | Crystal appearance (3 months): No change | Melting point (3 months): 109.8~110.6 °C | Purity (3 months): 99.82 | Specific optical rotation (3 months): −43.99°

CCC(=O)O[C@H]1CC[C@@]2(C)C(=CC[C@@H]3[C@@H]2CC[C@]2(C)C(c4cccnc4)=CC[C@@H]32)C1 [Example 4, (3β)-17-(3-pyridyl)-androstane-5,16-dien-3-ol propionate]
Crystal appearance (0 month): No change | Melting point (0 month): 109.6~110.5 °C | Purity (0 month): 99.86 | Specific optical rotation (0 month): −44.46° | Crystal appearance (1 month): No change | Melting point (1 month): 109.4~110.4 °C | Purity (1 month): 99.83 | Specific optical rotation (1 month): −44.13° | Crystal appearance (2 months): No change | Melting point (2 months): 109.5~110.7 °C | Purity (2 months): 99.81 | Specific optical rotation (2 months): −44.08° | Crystal appearance (3 months): No change | Melting point (3 months): 109.7~110.6 °C | Purity (3 months): 99.79 | Specific optical rotation (3 months): −43.92°

CCC(=O)O[C@H]1CC[C@@]2(C)C(=CC[C@@H]3[C@@H]2CC[C@]2(C)C(c4cccnc4)=CC[C@@H]32)C1 [crystal form of Abiraterone propionate, (3β)-17-(3-pyridyl)-androstane-5,16-dien-3-ol propionate]
Crystal transformation [1]: no crystal transformation occurred | Stability [1]: good stability
